In US20100278897A1, “INTRAOCULAR BIOACTIVE AGENT DELIVERY SYSTEM WITH MOLECULAR PARTITIONING SYSTEM” (ALLERGAN, INC., priority 2009, published 2010):

Assay: Elimination of Compound A from the eye
Type: in vivo
Settings: intraocular

Cc1ccoc1C(=O)Nc1cccc(C#Cc2cncc(C(=O)N=[S@](=O)(CCCN3CCN(CCOCCO)CC3)c3ccccc3)c2)c1 [Compound A]
half-life of elimination from the eye: a few hours
